The record followed here is publication PMC2858402 (Chemical biology & drug design, 2009).

Assay [1] addresses Full-length DnaK (FL, flDnaK) (Escherichia coli, UniProt P0A6Y8). The experiment in a line: isothermal titration calorimetry. Format: binding. In general terms: In ITC the heat of successive injections is recorded.
Assay [2] concerns the target β-domain of DnaK (SBD), residues 393–507 (Escherichia coli, UniProt P0A6Y8). The experiment in a line: isothermal titration calorimetry. Format: binding.

The structures appear in SMILES notation.

β-domain of DnaK (SBD), residues 393–507, sequence (P0A6Y8 393-507): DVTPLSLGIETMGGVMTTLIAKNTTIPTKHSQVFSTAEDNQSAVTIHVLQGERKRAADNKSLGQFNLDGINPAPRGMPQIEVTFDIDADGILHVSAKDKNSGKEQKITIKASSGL
Full-length DnaK (FL, flDnaK), sequence (P0A6Y8 2-638): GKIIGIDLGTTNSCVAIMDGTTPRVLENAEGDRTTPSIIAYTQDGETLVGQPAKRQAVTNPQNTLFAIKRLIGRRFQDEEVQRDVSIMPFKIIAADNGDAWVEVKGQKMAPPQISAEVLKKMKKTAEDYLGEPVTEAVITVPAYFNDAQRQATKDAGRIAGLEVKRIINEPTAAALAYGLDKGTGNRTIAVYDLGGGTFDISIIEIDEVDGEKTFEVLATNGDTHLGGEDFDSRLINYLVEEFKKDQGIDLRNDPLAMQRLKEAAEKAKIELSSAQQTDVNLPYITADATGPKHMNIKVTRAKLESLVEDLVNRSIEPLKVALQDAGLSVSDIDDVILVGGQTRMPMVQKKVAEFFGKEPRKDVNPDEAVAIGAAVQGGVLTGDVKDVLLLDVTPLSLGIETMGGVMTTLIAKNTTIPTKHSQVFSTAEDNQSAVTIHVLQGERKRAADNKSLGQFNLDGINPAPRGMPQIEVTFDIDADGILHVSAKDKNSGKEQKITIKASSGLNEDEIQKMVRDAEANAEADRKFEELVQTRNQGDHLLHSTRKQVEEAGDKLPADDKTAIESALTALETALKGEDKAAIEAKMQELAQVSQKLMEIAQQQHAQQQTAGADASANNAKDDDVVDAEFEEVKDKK

With `Nc1ncnc2c1ncn2[C@@H]1O[C@H](COP(=O)(O)OP(=O)(O)OP(=O)(O)O)[C@@H](O)[C@H]1O` [ATP], the affinity in assay [1], expressed as Kd, was 0.01 µM.

With `O=C(NCc1cccc2ccccc12)c1cccs1` [D5, N-(naphthalen-1-ylmethyl)thiophene-2-carboxamide], the Kd (usually a measure of binding affinity in units of concentration) amounted to 1.7 µM in assay [1] and 1 µM in assay [2].

As for `O=C(Nc1ccc2[nH]ccc2c1)c1cccs1` [D7, N-(1H-indol-5-yl)thiophene-2-carboxamide], the values for the Kd in assay [1] and in assay [2] were 12.7 µM and 4.9 µM, respectively.

Regarding `O=C(Nc1ncc2ccccc2n1)c1cccs1` [D9, N-(quinazolin-2-yl)thiophene-2-carboxamide], the Kd in assay [2] worked out at 1.5 µM.

In assay [1], `O=C(NCc1cccc2ccsc12)c1cccs1` [D10, N-(benzo[b]thiophen-7-ylmethyl)thiophene-2-carboxamide] had a Kd of 0.2 µM.

`O=C(NCc1ccc(Cl)c(Cl)c1)c1cccs1` [F6, N-(3,4-dichlorobenzyl)thiophene-2-carboxamide] came in with a Kd in assay [1] of 7.3 ± 6.4 µM.

As to `O=C(NCc1c(Cl)cccc1Cl)c1cccs1` [F7, N-(2,6-dichlorobenzyl)thiophene-2-carboxamide], in assay [1], binding was put at a Kd of 1.5 µM.

Take `O=C(NCc1ccccc1O)c1cccs1` [F8, N-(2-hydroxybenzyl)thiophene-2-carboxamide]: binding in assay [1] was put at a Kd of 2.3 µM.

Turning to `O=C(NCc1cc(Cl)cc(Cl)c1)c1cccs1` [F9, N-(3,5-dichlorobenzyl)thiophene-2-carboxamide], in assay [1], the Kd was found to be 2.8 µM.

The compound `O=C(c1cccs1)N1CCN(CCO)CC1` [F10, (4-(2-hydroxyethyl)piperazin-1-yl)(thiophen-2-yl)methanone] had a Kd in assay [1] of 16.7 µM.
